Source: ChEMBL document CHEMBL1201862, “PubChem BioAssay data set” (2004)
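Method: 48-hour compound exposure of cells in 96-well plates, five concentrations, linear interpolation of endpoints. Abbreviation: GI50, concentration required for 50% inhibition of growth.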 Activity calls are given as the source filed them. No stated cut-off is given here; in the data, active = GI50 up to about 1.1 µM and inactive = higher.

Experiments:
Test in all cases: inhibition of tumour cell growth, NCI panel, 48 h
A498 = system: A498
K562 = system: K562
CAKI-1 = system: CAKI-1
SK-OV-3 = system: SK-OV-3
NCI-H522 = system: NCI-H522
RPMI-8226 = system: RPMI-8226
SF-268 = system: SF-268
SNB-75 = system: SNB-75
UACC-257 = system: UACC-257
HOP-62 = system: HOP-62
HL-60 = system: HL-60
SNB-19 = system: SNB-19
SK-MEL-2 = system: SK-MEL-2
KM-20L2 = system: KM-20L2
SK-MEL-28 = system: SK-MEL-28
Malme-3M = system: Malme-3M
NCI-H226 = system: NCI-H226
SW-620 = system: SW-620
TK-10 = system: TK-10
RXF 393 = system: RXF 393

SMILES	GI50 (A498)	GI50 (K562)	GI50 (CAKI-1)	GI50 (SK-OV-3)	GI50 (NCI-H522)	GI50 (RPMI-8226)	GI50 (SF-268)	GI50 (SNB-75)	GI50 (UACC-257)	GI50 (HOP-62)	GI50 (HL-60)	GI50 (SNB-19)	GI50 (SK-MEL-2)	GI50 (KM-20L2)	GI50 (SK-MEL-28)	GI50 (Malme-3M)	GI50 (NCI-H226)	GI50 (SW-620)	GI50 (TK-10)	GI50 (RXF 393)
N#C/C(=C(/S)Nc1ccccc1)c1nc2ccccc2[nH]1	> 10 µM (inactive)	> 10 µM (inactive)	> 10 µM (inactive)	0.634 µM (active)	> 10 µM (inactive)	> 10 µM (inactive)	> 10 µM (inactive)	> 10 µM (inactive)	> 10 µM (inactive)	> 10 µM (inactive)	> 10 µM (inactive)	> 10 µM (inactive)	> 10 µM (inactive)	> 10 µM (inactive)	> 10 µM (inactive)	> 10 µM (inactive)	> 10 µM (inactive)	> 10 µM (inactive)	> 10 µM (inactive)	
CC(=O)c1ccc2c(ccc(=O)n2C)c1	> 100 µM (inactive)	> 100 µM (inactive)	> 100 µM (inactive)	> 100 µM (inactive)	56.2 µM (inactive)	> 100 µM (inactive)	> 100 µM (inactive)	38.7 µM (inactive)		> 100 µM (inactive)	> 100 µM (inactive)	> 100 µM (inactive)	> 100 µM (inactive)	> 100 µM (inactive)	> 100 µM (inactive)	> 100 µM (inactive)	> 100 µM (inactive)	> 100 µM (inactive)	> 100 µM (inactive)	
CC(C)C(=O)/C=C/c1ccc(Cl)cc1	> 10 µM (inactive)	3.48 µM (inactive)		40.5 µM (inactive)	11 µM (inactive)	5.37 µM (inactive)	23.8 µM (inactive)	15.8 µM (inactive)	20.2 µM (inactive)		8.22 µM (inactive)	13.4 µM (inactive)	19.4 µM (inactive)	26.2 µM (inactive)	> 10 µM (inactive)			3.99 µM (inactive)		17.6 µM (inactive)
O=[N+]([O-])c1ccc(C[P+]2(c3ccccc3)CCCCC2)cc1.[O-][Cl+3]([O-])([O-])[O-]	> 100 µM (inactive)	> 100 µM (inactive)		> 100 µM (inactive)	> 100 µM (inactive)	> 100 µM (inactive)		> 100 µM (inactive)	> 100 µM (inactive)	> 100 µM (inactive)	> 100 µM (inactive)	> 100 µM (inactive)	> 100 µM (inactive)	> 100 µM (inactive)	> 100 µM (inactive)	> 100 µM (inactive)	> 100 µM (inactive)	> 100 µM (inactive)	> 100 µM (inactive)	> 100 µM (inactive)
CCOP1(=O)C=CC(Cl)=C(C)C1 (centres undefined)	29.2 µM (inactive)	5.06 µM (inactive)	10.5 µM (inactive)	48 µM (inactive)	4.04 µM (inactive)	6.82 µM (inactive)	22.1 µM (inactive)	4.67 µM (inactive)	15.5 µM (inactive)	27.2 µM (inactive)	3.57 µM (inactive)	67.5 µM (inactive)	12.9 µM (inactive)	16.9 µM (inactive)	16.2 µM (inactive)	14.3 µM (inactive)	> 100 µM (inactive)	11.5 µM (inactive)	19.5 µM (inactive)	4.27 µM (inactive)
O=C1C(NCCO)=C(N2CC2)C(=O)C(NCCO)=C1N1CC1	> 100 µM (inactive)	39.5 µM (inactive)	85.9 µM (inactive)	> 70.6 µM (inactive)	31.3 µM (inactive)	44.6 µM (inactive)	30.8 µM (inactive)	63.8 µM (inactive)	> 74.3 µM (inactive)	27.4 µM (inactive)	13.2 µM (inactive)	60.7 µM (inactive)	> 58.3 µM (inactive)	> 100 µM (inactive)	> 100 µM (inactive)	> 100 µM (inactive)	57.5 µM (inactive)	46.8 µM (inactive)	> 100 µM (inactive)	71.3 µM (inactive)
COc1ccc(C(CCC(C)=O)C(=O)O)cc1OC (centres undefined)	> 100 µM (inactive)	> 100 µM (inactive)	> 100 µM (inactive)			> 100 µM (inactive)	> 100 µM (inactive)	> 100 µM (inactive)	> 100 µM (inactive)	> 100 µM (inactive)		> 100 µM (inactive)	> 100 µM (inactive)	> 100 µM (inactive)	> 100 µM (inactive)	> 100 µM (inactive)		> 100 µM (inactive)	> 100 µM (inactive)	> 100 µM (inactive)
COc1cc(C2c3cc4c(cc3[C@@H](N(C)c3ccc(N(C)C)cc3)C3COC(=O)C23)OCO4)cc(OC)c1O (some centres undefined)	26.8 µM (inactive)	0.329 µM (active)	0.491 µM (active)	0.402 µM (active)	0.0589 µM (active)	0.923 µM (active)	0.343 µM (active)	4.34 µM (inactive)	1.39 µM (inactive)	1.75 µM (inactive)	0.362 µM (active)	2.15 µM (inactive)	0.33 µM (active)	0.21 µM (active)	1.25 µM (inactive)		0.292 µM (active)	0.184 µM (active)	18.5 µM (inactive)	
